The text below walks through data of patent US10189796B2, “[4-(1,3,3-trimethyl-2-oxo-3,4-dihydro-1H-quinoxalin-7-yl)phenoxy]ethyloxy compound or salt thereof” (SANTEN PHARMACEUTICAL CO., LTD., priority 2015, dated 2019).

In one experiment the target is Recombinant human GR (Homo sapiens (Human), UniProt P04150). In words: GR competitive binding assay by fluorescence polarization. The following applies: 20 μM test compound solution, 10 μL/well; 2 hours; DEX positive control; read-out: GR binding rate (%). The method in brief: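 Fluorescence polarization competition between test compound and Fluormone GS1 fluorescent glucocorticoid ligand for recombinant human GR. Buffer 10 mM potassium phosphate pH 7.4, 20 mM Na2MoO4, 0.1 mM EDTA, 5 mM DTT, 2% DMSO. 2 h dark incubation at room temperature; binding ratio (%) scaled between buffer-only and DEX controls.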
(Fluorescence polarisation rises when a labelled molecule tumbles more slowly, as on binding a larger partner.)

In experiment [1] the test system is TNFα production in rat whole blood. As to the kind of experiment: TNFα production inhibitory action evaluation test (LPS stimulation ex vivo, ELISA). Format: cell-based. To be noted: 20 hours, 200 μM test compound solution 10 μL/well, DEX treated group = 100, read-out: TNFα production inhibitory ratio (% DEX). Here is the method: In order to evaluate an action of the present compound as a GR agonist, a TNFα production inhibitory action in rat whole blood after LPS stimulation ex vivo was investigated. For the measurement of the TNFα production amount, the ELISA method (manufactured by R&D Systems, Cat No. RTA00) was used, and a procedure was carried out according to the protocol attached thereto. Hereinafter, the specific method will be described.
LPS solution: LPS was dissolved in PBS(−) and diluted with RPMI 1640 to prepare an LPS solution with a concentration of 2 μg/mL.
After the test compound was dissolved in dimethylsulfoxide, the solution was diluted with PBS(−) to prepare 200 μM of a test compound solution. In addition, DEX was similarly dissolved to prepare 200 μM of a DEX solution, and a TNFα production inhibitory ratio of DEX was measured, and used for calculation of Efficacy (% DEX).
• 1) Blood was collected from 3 to 5 rats using an injection syringe treated with heparin from the abdominal aorta under isoflurane anesthesia. The rats confirmed death after lething the whole blood. • 2) The blood of 3 to 5 rats pooled in a 96-well round bottom culture plate was seeded at each 180 μL/well. • 3) It was cultured (37° C., 5% CO2, 95% air) for about 1 hour. • 4) The test compound solution was added each 10 μL/well, and cultured for 1 hour. • 5) LPS solution was added each 10 μL/well. • 6) The sample in which 2% dimethylsulfoxide-containing PBS(−) was added with each 10 μL/well in place of each test compound solution, and RPMI 1640 was added with each 10 μL/well in place of the LPS solution was made a negative control. • 7) The sample in which 2% dimethylsulfoxide-containing PBS(−) was added with each 10 μL/well in place of each test compound solution was made a positive control. • 8) After completion of 20 hours cultivation, the supernatant was recovered and the amount of TNFα released in the supernatant was measured by using an ELISA Kit. • 9) The TNFα production inhibitory ratio was calculated according to the following calculation formula. (Calculation of TNFα Production Inhibitory Ratio)
TNFα production inhibitory ratio (%) was calculated according to the following formula. TNFα production inhibitory ratio (%)=100×{1−(TNFα production amount of each test compound solution−average value of TNFα production amount of negative control group)/(average value of TNFα production amount of positive control group−average value of TNFα production amount of negative control group)}(%)
Further, a TNFα production inhibitory ratio (Efficacy (% DEX)) when the DEX treated group was made 100 was calculated. Efficacy (% DEX)=100×{(average value of TNFα production inhibitory ratio of each test compound solution)/(average value of TNFα production inhibitory ratio of DEX treated group)}(%)

SMILES strings stand for the structures.

Recombinant human GR, sequence (P04150 whole entry): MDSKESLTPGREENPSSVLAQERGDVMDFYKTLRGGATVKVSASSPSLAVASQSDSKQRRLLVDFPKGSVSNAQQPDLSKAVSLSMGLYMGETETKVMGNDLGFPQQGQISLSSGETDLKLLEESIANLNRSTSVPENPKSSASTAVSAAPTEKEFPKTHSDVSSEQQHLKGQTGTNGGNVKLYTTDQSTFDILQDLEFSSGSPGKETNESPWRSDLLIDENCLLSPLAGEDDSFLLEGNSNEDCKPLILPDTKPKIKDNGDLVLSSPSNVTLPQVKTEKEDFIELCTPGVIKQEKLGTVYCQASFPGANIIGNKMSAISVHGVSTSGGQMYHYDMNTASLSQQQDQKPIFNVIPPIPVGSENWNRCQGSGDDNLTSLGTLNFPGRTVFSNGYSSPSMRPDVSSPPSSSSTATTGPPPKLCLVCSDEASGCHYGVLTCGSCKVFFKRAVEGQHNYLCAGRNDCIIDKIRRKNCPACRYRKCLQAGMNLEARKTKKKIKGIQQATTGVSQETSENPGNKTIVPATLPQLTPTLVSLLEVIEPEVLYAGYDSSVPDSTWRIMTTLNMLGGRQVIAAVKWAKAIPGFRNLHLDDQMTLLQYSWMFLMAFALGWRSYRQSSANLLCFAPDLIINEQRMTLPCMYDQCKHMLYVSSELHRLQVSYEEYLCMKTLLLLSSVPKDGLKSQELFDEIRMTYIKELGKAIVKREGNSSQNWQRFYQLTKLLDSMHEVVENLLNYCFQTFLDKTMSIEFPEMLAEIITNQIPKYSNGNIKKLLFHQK

On to `COc1cc(OC[C@@H](O)CCO)ccc1-c1ccc2c(c1COc1cc(F)ccc1C)N(C)C(=O)C(C)(C)N2` [Compound 2-1, (S)-7-[4-(2,4-dihydroxybutyl)oxy-2-methoxyphenyl]-8-(5-fluoro-2-methyl-phenoxymethyl)-1,3,3-trimethyl-3,4-dihydro-1H-quinoxalin-2-one], for which the inhibition at 10 µM at Recombinant human GR was above 99%. Further, in experiment [1], the Emax was found to be 97%.
For `COc1ccc(CO)cc1-c1ccc2c(c1COc1cc(F)ccc1C)N(C)C(=O)C(C)(C)N2` [Control compound B, 8-(5-fluoro-2-methylphenoxymethyl)-7-(5-hydroxymethyl-2-methoxyphenyl)-1,3,3-trimethyl-3,4-dihydro-1H-quinoxalin-2-one, reference compound], at Recombinant human GR, the inhibition at 10 µM was above 99%. For the same compound, the Emax in experiment [1] stood at 77%.
Turning to `COc1ccc(O)cc1-c1ccc2c(c1COc1cc(F)ccc1C)N(C)C(=O)C(C)(C)N2` [Control compound C, 8-(5-fluoro-2-methylphenoxymethyl)-7-(5-hydroxy-2-methoxyphenyl)-1,3,3-trimethyl-3,4-dihydro-1H-quinoxalin-2-one], on Recombinant human GR, the inhibition at 10 µM was above 99%.
On to `CCCC(=O)Oc1ccc(-c2ccc3c(c2COc2cc(F)ccc2C)N(C)C(=O)C(C)(C)N3)c(OC)c1` [Control compound D, 7-(4-butyryloxy-2-methoxyphenyl)-8-(5-fluoro-2-methylphenoxymethyl)-1,3,3-trimethyl-3,4-dihydro-1H-quinoxalin-2-one, reference compound], for which the inhibition at 10 µM at Recombinant human GR was 98%.
On to `COc1cc(OC[C@H](C)O)ccc1-c1ccc2c(c1COc1cc(F)ccc1C)N(C)C(=O)C(C)(C)N2` [Compound 1-1, (S)-8-(5-fluoro-2-methylphenoxymethyl)-7-[4-(2-hydroxypropyl)oxy-2-methoxy-phenyl]-1,3,3-trimethyl-3,4-dihydro-1H-quinoxalin-2-one], for which, at Recombinant human GR, the inhibition at 10 µM was above 99%. Also, in experiment [1], the Emax was determined as 81%.
As for `COc1cc(OC[C@H](C)OC(=O)CN(C)C)ccc1-c1ccc2c(c1COc1cc(F)ccc1C)N(C)C(=O)C(C)(C)N2` [Compound 11-1, (S)-7-[4-[2-(N,N-dimethylaminoacetoxy)propyl]oxy-2-methoxyphenyl]-8-(5-fluoro-2-methylphenoxymethyl)-1,3,3-trimethyl-3,4-dihydro-1H-quinoxalin-2-one], at Recombinant human GR, the inhibition at 10 µM turned out to be 99%.
For the compound `COc1cc(OC[C@@H](O)CC#N)ccc1-c1ccc2c(c1COc1cc(F)ccc1C)N(C)C(=O)C(C)(C)N2` [Compound 5-2, (S)-7-[4-(3-cyano-2-hydroxypropyl)oxy-2-methoxyphenyl]-8-(5-fluoro-2-methyl-phenoxymethyl)-1,3,3-trimethyl-3,4-dihydro-1H-quinoxalin-2-one], the inhibition at 10 µM at Recombinant human GR was above 99%. Besides, the Emax in experiment [1] is above 99%.
For `COc1ccc(-c2ccc3c(c2COc2cc(F)ccc2C)N(C)C(=O)C(C)(C)N3)c(OC)c1` [Control compound E, 7-(2,4-dimethoxyphenyl)-8-(5-fluoro-2-methyl-phenoxymethyl)-1,3,3-trimethyl-3,4-dihydro-1H-quinoxalin-2-one, reference compound], the inhibition at 10 µM at Recombinant human GR worked out at 98%. Moreover, the Emax in experiment [1] worked out at 0%.
As for `COCOc1ccc(-c2ccc3c(c2COc2cc(F)ccc2C)N(C)C(=O)C(C)(C)N3)c(OC)c1` [Control compound F, 8-(5-fluoro-2-methylphenoxymethyl)-7-(2-methoxy-4-methoxymethoxyphenyl)-1,3,3-trimethyl-3,4-dihydro-1H-quinoxalin-2-one, reference compound], the inhibition at 10 µM on Recombinant human GR was determined as 94%. Besides, the Emax in experiment [1] was found to be 69%.
